Where a name gives a salt, the structure may show the parent alone.
Experiments:
[1] = Diameter and PDI from DLS measurements of mRNA nanoparticles with lipid amines; type: physicochemical
Method in brief: (§1)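 Ionizable lipid nanoparticles (IL1:DSPC:cholesterol:PEG-DMG-2K) formed by vortex mixing at pH 4, loaded with luciferase or CFTR mRNA at N:P 4.93, neutralized with TRIS pH 8.12, then modified with lipid amine SA50 at pH 7.5. Particle diameter and PDI read by DLS; mRNA encapsulation by Ribogreen assay.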

HeLa cells [2] = assay: CFTR Protein Expression Assay in HeLa Cells; type: cell-based, Human; conditions: LNPs encapsulating CFTR mRNA, N=4 wells; 5 h serum-free then 24 h; immunofluorescence vs PBS control
Method in brief: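 HeLa cells dosed with CFTR mRNA LNPs (70 mM NaCl final buffer matrix) in serum-free MEM for 5 h, then complete MEM for 24 h. Fixed cells immunostained with anti-CFTR monoclonal and Alexa 488 secondary, imaged confocally; CFTR intensity per cell expressed as fold-change versus PBS buffer control, N=4 wells.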

[3] = Encapsulation of mRNA nanoparticles with lipid amines using Ribogreen assay; type: physicochemical
Method in brief: as §1

HeLa cells [4] = assay: Luciferase Protein Expression Assay in HeLa Cells; type: cell-based, Human; conditions: LNPs encapsulating Luciferase mRNA, 25 ng per well, N=4 wells; 5 h serum-free then 24 h; ONE-Glo
Method in brief: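 HeLa cells received LNPs carrying luciferase mRNA (25 ng per well) or PBS in serum-free MEM for 5 h, then complete MEM for a further 24 h. Luciferase then read by ONE-Glo luminescence after lysis and reported as average RLU of 4 replicate wells.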

[5] = CFTR mRNA nanoparticle with lipid amine
[6] = Luciferase mRNA nanoparticle modified with lipid amine

Row | SMILES | Diameter (nm) [1, 5] | PDI [1, 5] | Diameter (nm) [1, 6] | PDI [1, 6] | Average fold-change in CFTR signal intensity per cell compared to buffer control ± standard deviation (HeLa cells [2]) | % Encapsulation (Ribogreen) [3, 5] | % Encapsulation (Ribogreen) [3, 6] | Average Relative Light Units ± Standard Deviation (HeLa cells [4])
1 | CC[C@H](CC[C@@H](C)[C@H]1CC[C@H]2[C@@H]3CC=C4C[C@@H](OC(=O)CCC(=O)N(CCCCCCCC(C)N)CCC(C)N)CC[C@]4(C)[C@H]3CC[C@]12C)C(C)C (stereo partly drawn) [SA163, (3S,8S,9S,10R,13R,14S,17R)-17-((2R,5R)-5-ethyl-6-methylheptan-2-yl)-10,13-dimethyl-2,3,4,7,8,9,10,11,12,13,14,15,16,17-tetradecahydro-1H-cyclopenta[a]phenanthren-3-yl 4-((3-aminobutyl)(8-aminononyl)amino)-4-oxobutanoate dihydrochloride] | 70.6 nm | 0.09 | 71 nm | 0.17 | 11.3 ± 0.5 fold-change | 100% | 99.1% | 30168 ± 7878.9 Relative Light Units
2 | CC(C)CCC[C@@H](C)[C@H]1CC[C@H]2[C@@H]3CC=C4C[C@@H](OC(=O)CCC(=O)N(CCCCCCCC(C)(C)N)CCC(C)(C)N)CC[C@]4(C)[C@H]3CC[C@]12C [SA164, (3S,8S,9S,10R,13R,14S,17R)-10,13-dimethyl-17-((R)-6-methylheptan-2-yl)-2,3,4,7,8,9,10,11,12,13,14,15,16,17-tetradecahydro-1H-cyclopenta[a]phenanthren-3-yl 4-((3-amino-3-methylbutyl)(8-amino-8-methylnonyl)amino)-4-oxobutanoate dihydrochloride] | 72.5 nm | 0.14 | 73 nm | 0.14 | 16.2 ± 0.7 fold-change | 99.2% | 98.0% | 17129.2 ± 2374.1 Relative Light Units
3 | CC[C@H](CC[C@@H](C)[C@H]1CC[C@H]2[C@@H]3CC=C4C[C@@H](OC(=O)CCC(=O)N(CCCCCCCC(C)(C)N)CCC(C)(C)N)CC[C@]4(C)[C@H]3CC[C@]12C)C(C)C [SA165, (3S,8S,9S,10R,13R,14S,17R)-17-((2R,5R)-5-ethyl-6-methylheptan-2-yl)-10,13-dimethyl-2,3,4,7,8,9,10,11,12,13,14,15,16,17-tetradecahydro-1H-cyclopenta[a]phenanthren-3-yl 4-((3-amino-3-methylbutyl)(8-amino-8-methylnonyl)amino)-4-oxobutanoate dihydrochloride] | 69.8 nm | 0.12 | 72 nm | 0.13 | 14.0 ± 0.5 fold-change | 98.8% | 98.8% | 33585.6 ± 7766.5 Relative Light Units
4 | CC(C)CCC[C@@H](C)[C@H]1CC[C@H]2[C@@H]3CC=C4C[C@@H](OC(=O)CCC(=O)N(CCCC(C)(C)N)CCC(C)(C)N)CC[C@]4(C)[C@H]3CC[C@]12C [SA166, (3S,8S,9S,10R,13R,14S,17R)-10,13-dimethyl-17-((R)-6-methylheptan-2-yl)-2,3,4,7,8,9,10,11,12,13,14,15,16,17-tetradecahydro-1H-cyclopenta[a]phenanthren-3-yl 4-((3-amino-3-methylbutyl)(4-amino-4-methylpentyl)amino)-4-oxobutanoate dihydrochloride] | 76.1 nm | 0.16 | 75 nm | 0.14 | 15.6 ± 1.3 fold-change | 99.5% | 99.2% | 33377.3 ± 8879.8 Relative Light Units
5 | CC[C@H](CC[C@@H](C)[C@H]1CC[C@H]2[C@@H]3CC=C4C[C@@H](OC(=O)CCC(=O)N(CCCC(C)(C)N)CCC(C)(C)N)CC[C@]4(C)[C@H]3CC[C@]12C)C(C)C [SA167, (3S,8S,9S,10R,13R,14S,17R)-17-((2R,5R)-5-ethyl-6-methylheptan-2-yl)-10,13-dimethyl-2,3,4,7,8,9,10,11,12,13,14,15,16,17-tetradecahydro-1H-cyclopenta[a]phenanthren-3-yl 4-((3-amino-3-methylbutyl)(4-amino-4-methylpentyl)amino)-4-oxobutanoate dihydrochloride] | 75.1 nm | 0.16 | 75 nm | 0.15 | 14.9 ± 1.4 fold-change | 100% | 98.7% | 38742.4 ± 6037.5 Relative Light Units
6 | CC[C@H](CC[C@@H](C)[C@H]1CC[C@H]2[C@@H]3CC=C4C[C@@H](OC(=O)CCC(=O)N(CCC(C)N)CCC(C)N)CC[C@]4(C)[C@H]3CC[C@]12C)C(C)C (stereo partly drawn) [SA168, (3S,8S,9S,10R,13R,14S,17R)-17-((2R,5R)-5-ethyl-6-methylheptan-2-yl)-10,13-dimethyl-2,3,4,7,8,9,10,11,12,13,14,15,16,17-tetradecahydro-1H-cyclopenta[a]phenanthren-3-yl 4-(bis(3-aminobutyl)amino)-4-oxobutanoate dihydrochloride] | 76.1 nm | 0.15 | 79 nm | 0.16 | 14.8 ± 0.7 fold-change | 99.3% | 99.3% | 35639.5 ± 6688.9 Relative Light Units
7 | CC(C)CCC[C@@H](C)[C@H]1CC[C@H]2[C@@H]3CC=C4C[C@@H](OC(=O)CCC(=O)N(CCC(C)(C)N)CCC(C)(C)N)CC[C@]4(C)[C@H]3CC[C@]12C [SA169, (3S,8S,9S,10R,13R,14S,17R)-10,13-dimethyl-17-((R)-6-methylheptan-2-yl)-2,3,4,7,8,9,10,11,12,13,14,15,16,17-tetradecahydro-1H-cyclopenta[a]phenanthren-3-yl 4-(bis(3-amino-3-methylbutyl)amino)-4-oxobutanoate dihydrochloride] | 73.0 nm | 0.14 | 77 nm | 0.20 | 19.7 ± 1.6 fold-change | 99.2% | 99.4% | 28034.9 ± 4050.3 Relative Light Units
8 | CC[C@H](CC[C@@H](C)[C@H]1CC[C@H]2[C@@H]3CC=C4C[C@@H](OC(=O)CCC(=O)N(CCC(C)(C)N)CCC(C)(C)N)CC[C@]4(C)[C@H]3CC[C@]12C)C(C)C [SA170, (3S,8S,9S,10R,13R,14S,17R)-17-((2R,5R)-5-ethyl-6-methylheptan-2-yl)-10,13-dimethyl-2,3,4,7,8,9,10,11,12,13,14,15,16,17-tetradecahydro-1H-cyclopenta[a]phenanthren-3-yl 4-(bis(3-amino-3-methylbutyl)amino)-4-oxobutanoate dihydrochloride] | 74.8 nm | 0.15 | 75 nm | 0.21 | 19.0 ± 1.7 fold-change | 99.2% | 99.6% | 23687.3 ± 3865 Relative Light Units
9 | CC(C)CCC[C@@H](C)[C@H]1CC[C@H]2[C@@H]3CC=C4C[C@@H](SSCCC(=O)N(CCCCNCCC(C)N)CCC(C)N)CC[C@]4(C)[C@H]3CC[C@]12C (stereo partly drawn) [SA171, N-(3-aminobutyl)-N-(4-((3-aminobutyl)amino)butyl)-3-(((3S,8S,9S,10R,13R,14S,17R)-10,13-dimethyl-17-((R)-6-methylheptan-2-yl)-2,3,4,7,8,9,10,11,12,13,14,15,16,17-tetradecahydro-1H-cyclopenta[a]phenanthren-3-yl)disulfaneyl)propanamide trihydrochloride] | 71.3 nm | 0.11 | 73 nm | 0.23 | 18.9 ± 1.9 fold-change | 99.4% | 99.2% | 22232.4 ± 9084.1 Relative Light Units
